This assay relates to CD2F1 mice, L1210 leukemia ip, survival T/C. In words: NCI In Vivo Anticancer Drug Screen. Data for tumor model L1210 Leukemia (intraperitoneal) in CD2F1 (CDF1) mice. The settings on record: higher = longer survival. A digest of the protocol: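 Activity against a transplanted murine tumor was judged by comparing the compound group with a vehicle group. The outcome in the treated animals was divided by that in the controls.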

Where [1] appears, read: endpoint: mean survival time, dose: 12.5 mg/kg/injection, schedule: Q04DX003 (ip), vehicle: saline with Tween-80.
Setting [2] is: endpoint: mean survival time, dose: 100.0 mg/kg/injection, schedule: Q01DX001 (ip), vehicle: saline with Tween-80.
Where [3] appears, read: endpoint: mean survival time, dose: 400.0 mg/kg/injection, schedule: Q01DX001 (ip), vehicle: saline with Tween-80.
Where [4] appears, read: endpoint: mean survival time, dose: 100.0 mg/kg/injection, schedule: Q01DX009 (ip), vehicle: saline.
[5] abbreviates: endpoint: mean survival time, dose: 200.0 mg/kg/injection, schedule: Q01DX009 (ip), vehicle: saline.
Where [6] appears, read: endpoint: mean survival time, dose: 400.0 mg/kg/injection, schedule: Q01DX009 (ip), vehicle: saline.
The mark [7] stands for this setting: endpoint: mean survival time, dose: 100.0 mg/kg/injection, schedule: Q04DX003 (ip), vehicle: saline with Tween-80.
Setting [8] is: endpoint: mean survival time, dose: 200.0 mg/kg/injection, schedule: Q04DX003 (ip), vehicle: saline with Tween-80.
Setting [9] is: endpoint: mean survival time, dose: 100.0 mg/kg/injection, schedule: Q04DX002 (ip), vehicle: saline with Tween-80.
Where [10] appears, read: endpoint: mean survival time, dose: 400.0 mg/kg/injection, schedule: Q04DX003 (ip), vehicle: saline with Tween-80.
Where [11] appears, read: endpoint: mean survival time, dose: 100.0 mg/kg/injection, schedule: Q01DX009 (ip), vehicle: saline with Tween-80.
Where [12] appears, read: endpoint: mean survival time, dose: 200.0 mg/kg/injection, schedule: Q01DX009 (ip), vehicle: saline with Tween-80.
Where [13] appears, read: endpoint: mean survival time, dose: 400.0 mg/kg/injection, schedule: Q01DX009 (ip), vehicle: saline with Tween-80.
The mark [14] stands for this setting: endpoint: mean survival time, dose: 100.0 mg/kg/injection, schedule: Q01DX001 (ip), vehicle: Klucel (hydroxypropylcellulose) (HPC).
Setting [15] is: endpoint: mean survival time, dose: 200.0 mg/kg/injection, schedule: Q01DX001 (ip), vehicle: Klucel (hydroxypropylcellulose) (HPC).
Where [16] appears, read: endpoint: mean survival time, dose: 400.0 mg/kg/injection, schedule: Q01DX001 (ip), vehicle: Klucel (hydroxypropylcellulose) (HPC).

Structures are written as SMILES. Several values for one entry are separate records, joined by “and”; a condition that tells them apart may be missing. Equal entries are not always repeated. Toxic doses and inconclusive results are not listed.

With `[Cl][Pt+2][Cl].[NH-]CC1([NH-])CCCCC1`, the T/C is, setting by setting: (endpoint: mean survival time, dose: 0.19 mg/kg/injection, schedule: Q04DX003 (ip), vehicle: saline with Tween-80) 107 % of control; (endpoint: mean survival time, dose: 0.39 mg/kg/injection, schedule: Q04DX003 (ip), vehicle: saline with Tween-80) 107 % of control; (endpoint: mean survival time, dose: 0.79 mg/kg/injection, schedule: Q04DX003 (ip), vehicle: saline with Tween-80) 113 % of control; (endpoint: mean survival time, dose: 1.56 mg/kg/injection, schedule: Q04DX003 (ip), vehicle: saline with Tween-80) 114 % of control; (endpoint: mean survival time, dose: 3.13 mg/kg/injection, schedule: Q04DX003 (ip), vehicle: saline) 202 % of control; (endpoint: mean survival time, dose: 6.25 mg/kg/injection, schedule: Q04DX003 (ip), vehicle: saline) 184 % of control. Under setting [1], the T/C was 244 % of control.
Consider `Cc1cc(=O)oc2cc(O)ccc12`, for which the T/C was 94 % of control under setting [2]; 98 % of control (endpoint: mean survival time, dose: 200.0 mg/kg/injection, schedule: Q01DX001 (ip), vehicle: saline with Tween-80); 87 % of control under setting [3].
With `CC(C)(C)NC(=O)NCCCN1CCOCC1`, the T/C runs as follows: under setting [4], 102 % of control; under setting [5], 98 % of control; under setting [6], 91 % of control.
Consider `N=[N+]=CC(=O)CC(N)C(=O)O` (stereo not drawn), for which the T/C is 111 % of control (endpoint: median survival time, dose: 400.0 mg/kg/injection, schedule: Q01DX001 (ip), vehicle: saline); 112 % of control (endpoint: median survival time, dose: 800.0 mg/kg/injection, schedule: Q01DX001 (ip), vehicle: saline); 25 % of control (endpoint: median survival time, dose: 1600.0 mg/kg/injection, schedule: Q01DX001 (ip), vehicle: saline).
For the compound `CNN=C1CCCC1`, the T/C (endpoint: mean survival time, dose: 12.5 mg/kg/injection, schedule: Q01DX009 (ip), vehicle: saline) is 97 % of control and the T/C (endpoint: mean survival time, dose: 25.0 mg/kg/injection, schedule: Q01DX009 (ip), vehicle: saline) was 102 % of control.
For the compound `O=C1CCc2ccccc2C1C(=O)CC(O)(c1ccccc1)c1ccccc1` (stereo not drawn), the T/C runs as follows: under setting [7], 100 % of control; under setting [8], 102 % of control.
For the compound `CC([NH-])C([NH-])O.[I][Pt+2][I]` (stereo not drawn), the T/C is 97 % of control (endpoint: mean survival time, dose: 6.25 mg/kg/injection, schedule: Q04DX003 (ip), vehicle: saline with Tween-80); 115 % of control under setting [1]; 121 % of control (endpoint: mean survival time, dose: 25.0 mg/kg/injection, schedule: Q04DX003 (ip), vehicle: saline with Tween-80).
For the compound `CCCOC(=O)C(SCCN(C)C)c1ccccc1` (stereo not drawn), the T/C was 102 % of control (endpoint: mean survival time, dose: 100.0 mg/kg/injection, schedule: Q01DX001 (ip), vehicle: saline); 93 % of control under setting [4]; 97 % of control (endpoint: mean survival time, dose: 200.0 mg/kg/injection, schedule: Q01DX001 (ip), vehicle: saline); 100 % of control under setting [5]; 94 % of control (endpoint: mean survival time, dose: 400.0 mg/kg/injection, schedule: Q01DX001 (ip), vehicle: saline); 98 % of control under setting [6].
On to `CC12CCC3(CO3)CC1CCC1C2CCC2(C)C1CCC21CO1` (stereo not drawn), for which the T/C by setting is: (endpoint: mean survival time, dose: 75.0 mg/kg/injection, schedule: Q01DX001 (ip), vehicle: saline with Tween-80) 104 % of control; (endpoint: mean survival time, dose: 150.0 mg/kg/injection, schedule: Q01DX001 (ip), vehicle: saline with Tween-80) 106 % of control; (endpoint: mean survival time, dose: 300.0 mg/kg/injection, schedule: Q01DX001 (ip), vehicle: saline with Tween-80) 113 % of control.
For the compound `COc1ccccc1N=Nc1c(O)n(-c2ccccc2OC)c(=S)n(-c2ccc(C)cc2)c1=O`, the T/C is 90 % of control (endpoint: mean survival time, dose: 25.0 mg/kg/injection, schedule: Q04DX002 (ip), vehicle: saline with Tween-80); 90 % of control (endpoint: mean survival time, dose: 50.0 mg/kg/injection, schedule: Q04DX002 (ip), vehicle: saline with Tween-80); 90 % of control under setting [9].
For the compound `O=C1CC(=Nc2ccc([N+](=O)[O-])cc2)NN1c1c(Cl)cc(Cl)cc1Cl`, the T/C runs as follows: under setting [7], 101 % of control; under setting [8], 97 % of control; under setting [10], 97 % of control.
As for `COc1ccc(NC(=O)Nc2ccc(F)c(Cl)c2)c(OC)c1`, the T/C was 97 % of control under setting [11], 103 % of control under setting [12] and 112 % of control under setting [13].
Take `O=C1NC(=O)c2cccc3cccc1c23`: the T/C was 100 % of control under setting [11]; 98 % of control under setting [7]; 96 % of control under setting [12]; 102 % of control under setting [8]; 94 % of control under setting [13]; 100 % of control under setting [10].
For `O=C(O)C(c1ccccc1)C(F)(F)F` (stereo not drawn), the T/C under setting [11] was 95 % of control; the T/C under setting [7] is 108 % of control; the T/C under setting [12] was 105 % of control; the T/C under setting [8] was 94 % of control; the T/C under setting [13] is 94 % of control; the T/C under setting [10] is 92 % of control.
Consider `COC(=O)CC[S+](C)CCC(=O)OC`, for which the T/C runs as follows: (endpoint: mean survival time, dose: 7.5 mg/kg/injection, schedule: Q01DX009 (ip), vehicle: saline) 94 % of control; (endpoint: mean survival time, dose: 15.0 mg/kg/injection, schedule: Q01DX009 (ip), vehicle: saline) 98 % of control; (endpoint: mean survival time, dose: 30.0 mg/kg/injection, schedule: Q01DX009 (ip), vehicle: saline) 90 % of control.
For the compound `O=C(OCC(OC(=O)c1ccccc1)C1OC(OC(=O)c2ccccc2)C(OC(=O)c2ccccc2)C1OC(=O)c1ccccc1)c1ccccc1` (stereo not drawn), the T/C by setting is: under setting [14], 88 % of control; under setting [15], 95 % of control; under setting [16], 95 % of control.
`O=C(COc1ccc(F)cc1F)OC(=O)COc1ccc(F)cc1F`: the T/C is 92 % of control under setting [9]; 89 % of control (endpoint: mean survival time, dose: 200.0 mg/kg/injection, schedule: Q04DX002 (ip), vehicle: saline with Tween-80); 89 % of control (endpoint: mean survival time, dose: 400.0 mg/kg/injection, schedule: Q04DX002 (ip), vehicle: saline with Tween-80).
For the compound `COP(=O)(OC)C(=O)c1cccc2ccccc12`, the T/C is, setting by setting: under setting [7], 95 % of control; under setting [8], 93 % of control; under setting [10], 96 % of control.
With `COc1ccc(OC)c(NC(=O)Oc2cccc(NC(C)=O)c2)c1`, the T/C by setting is: (endpoint: mean survival time, dose: 50.0 mg/kg/injection, schedule: Q01DX009 (ip), vehicle: Klucel (hydroxypropylcellulose) (HPC)) 105 % of control; (endpoint: mean survival time, dose: 50.0 mg/kg/injection, schedule: Q01DX009 (ip), vehicle: saline with Tween-80) 103 % of control; (endpoint: mean survival time, dose: 100.0 mg/kg/injection, schedule: Q01DX009 (ip), vehicle: Klucel (hydroxypropylcellulose) (HPC)) 102 % of control; under setting [11], 97 % of control; (endpoint: mean survival time, dose: 200.0 mg/kg/injection, schedule: Q01DX009 (ip), vehicle: Klucel (hydroxypropylcellulose) (HPC)) 100 % of control; under setting [12], 272 % of control and 100 % of control. Moreover, the T/C runs as follows: (endpoint: mean survival time, dose: 400.0 mg/kg/injection, schedule: Q01DX009 (ip), vehicle: Klucel (hydroxypropylcellulose) (HPC)) 102 % of control; under setting [13], 92 % of control.
On to `N/C(=N/N=C/c1ccco1)N[N+](=O)[O-]`, for which the T/C runs as follows: (endpoint: mean survival time, dose: 50.0 mg/kg/injection, schedule: Q01DX001 (ip), vehicle: Klucel (hydroxypropylcellulose) (HPC)) 97 % of control; under setting [14], 94 % of control; under setting [15], 97 % of control.
For `O=C(CCc1ccc(O)cc1)c1c(O)cc(O)cc1O`, the T/C runs as follows: (endpoint: mean survival time, dose: 50.0 mg/kg/injection, schedule: Q01DX009 (ip), vehicle: saline + alcohol) 110 % of control; (endpoint: mean survival time, dose: 100.0 mg/kg/injection, schedule: Q01DX009 (ip), vehicle: saline + alcohol) 96 % of control; (endpoint: mean survival time, dose: 200.0 mg/kg/injection, schedule: Q01DX009 (ip), vehicle: saline + alcohol) 89 % of control; (endpoint: mean survival time, dose: 400.0 mg/kg/injection, schedule: Q01DX009 (ip), vehicle: saline + alcohol) 98 % of control.
In the case of `OC(c1ccccc1)(c1ccccc1)c1cc2ccccc2[nH]1`, the T/C is, setting by setting: under setting [2], 89 % of control; under setting [3], 89 % of control.
Regarding `CC1(C(=O)Sc2ccccc2)OC1(C)c1ccccc1` (stereo not drawn), the T/C is, setting by setting: under setting [14], 97 % of control; under setting [15], 108 % of control; under setting [16], 97 % of control.
As to `CC(=O)CSc1ncnc2nc[nH]c12`, the T/C is 118 % of control (endpoint: mean survival time, dose: 62.5 mg/kg/injection, schedule: Q01DX015 (ip), vehicle: saline); 122 % of control (endpoint: mean survival time, dose: 250.0 mg/kg/injection, schedule: Q01DX015 (ip), vehicle: saline); 150 % of control (endpoint: mean survival time, dose: 1000.0 mg/kg/injection, schedule: Q01DX015 (ip), vehicle: saline).

These data come from PubChem BioAssay AID256 (DTP/NCI, 2004).
